IC50 data for 14 compounds are collected here from patent US12649751B2 (Arcus Biosciences, Inc., priority 2022, dated 2026).

For experiment [1], the target named is HPK1 (Homo sapiens, UniProt Q92918). Briefly: HPK1 Biochemical Assay (ADP-Glo luminescence; low ATP 10 μM or high ATP 200 μM).
Experiment [2] deals with p-SLP-76 (Ser376) in Jurkat cells. Nature of the experiment: pSLP76 Cellular Assay (AlphaLISA SureFire Ultra p-SLP-76 (Ser376), anti-CD3 activated Jurkat cells). The format is cell-based. To be noted: Homo sapiens, read-out: Cellular Potency. Here is the method: pSLP76 cellular assay was performed using Jurkat cells and the AlphaLISA SureFire Ultra p-SLP-76 (Ser376) Assay Kit (PerkinElmer). Dose-response assays were performed in Greiner® Low Volume 384-well assay plates containing 200 nL of 22 serial 2-fold compound dilutions using Bravo and Echo. Jurkat cells were grown in RPMI-1640 supplemented with 10% FBS and PSG. The day prior to the assay, the cells were collected, and serum starved overnight in Opti-MEM. The day of the assay, the cells were collected and resuspended in HBSS. 100,000 cells/well were added to the compound plates and after a short spin, the plates were incubated at 37° C. for 1 h. The cells were activated by adding 10 μL of 0.025 mg/ml anti-CD3. Plates were then incubated at 37° C. for 45 min. Stimulation was terminated by adding […], followed by a brief centrifugation and 60 min of shaking at 300 rpm. Cell lysates (10 μL) were transferred to 384-well White Opti-plates and the samples were processed according to the manufacturer's directions. The fluorescence signal from pSLP76 was measured at 570 nm using Envision plate reader. IC50 values were determined by fitting the data to a standard 4-parameter logistic equation. The results are summarized in the Cellular Potency columns in Tables 4 and 5 below (Cellular Potency).

[3] abbreviates: HPK1 ADP-Glo assay, low ATP (10 μM ATP, 2 nM HPK1), read-out: Biochemical Potency (low ATP).
[4] abbreviates: pSLP76 (Ser376) AlphaLISA, anti-CD3 activated Jurkat cells.
The mark [5] stands for this setting: HPK1 ADP-Glo assay, high ATP (200 μM ATP, 5 nM HPK1), read-out: Biochemical Potency (high ATP).
The mark [6] stands for this setting: 2 nM HPK1, 10 μM ATP, read-out: Biochemical Potency (low ATP).
[7] abbreviates: Jurkat cells, anti-CD3 stimulation, pSLP76.

pIC50: −log10 of the molar value. Read-outs that look alike come from different tables or passages of the source.

HPK1, sequence (Q92918 whole entry, species assumed): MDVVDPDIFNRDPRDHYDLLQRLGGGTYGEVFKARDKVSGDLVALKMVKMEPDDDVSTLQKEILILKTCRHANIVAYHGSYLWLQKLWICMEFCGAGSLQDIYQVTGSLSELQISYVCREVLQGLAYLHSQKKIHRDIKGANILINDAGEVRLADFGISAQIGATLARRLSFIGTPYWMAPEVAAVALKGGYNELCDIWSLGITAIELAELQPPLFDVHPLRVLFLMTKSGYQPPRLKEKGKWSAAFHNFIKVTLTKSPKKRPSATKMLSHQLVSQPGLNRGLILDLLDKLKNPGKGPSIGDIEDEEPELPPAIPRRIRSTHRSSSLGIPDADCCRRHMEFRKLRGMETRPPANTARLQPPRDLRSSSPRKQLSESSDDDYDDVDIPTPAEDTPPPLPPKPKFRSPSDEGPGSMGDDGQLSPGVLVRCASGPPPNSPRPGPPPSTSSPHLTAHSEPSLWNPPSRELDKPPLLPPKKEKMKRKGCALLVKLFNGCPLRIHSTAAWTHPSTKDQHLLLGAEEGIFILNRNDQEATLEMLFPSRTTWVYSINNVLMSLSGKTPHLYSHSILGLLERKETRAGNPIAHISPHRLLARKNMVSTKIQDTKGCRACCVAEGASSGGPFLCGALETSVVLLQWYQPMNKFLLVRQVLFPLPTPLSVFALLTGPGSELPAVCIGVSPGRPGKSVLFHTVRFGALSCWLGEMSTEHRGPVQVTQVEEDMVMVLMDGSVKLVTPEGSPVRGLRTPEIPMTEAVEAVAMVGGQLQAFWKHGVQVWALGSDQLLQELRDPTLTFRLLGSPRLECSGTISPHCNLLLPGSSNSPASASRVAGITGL

For the compound `CN1C[C@@H]2C[C@H]1CN2c1cncc(Nc2cc3nc(-c4cccc(S(=O)(=O)N(C)C)c4)sc3cn2)n1` [Example 414], the pIC50 is above 7.00 in experiment [1] (setting [3]) and 5.30 to 6.00 in experiment [2] (setting [4]).
For the compound `CN1C[C@@H]2C[C@H]1CN2c1cncc(Nc2cc3nc(-c4cccc(C(C)(O)C(F)(F)F)c4)sc3cn2)n1` (some centres unmarked) [Example 410], the pIC50 in experiment [1] (setting [5]) is above 7.00; in experiment [1] (setting [3]), above 7.00; in experiment [2] (setting [4]), 6.00 to 7.00.
As to `CC(=O)N1CCc2c(cccc2-c2nc3cc(Nc4cc(C)nc(N5C[C@@H]6C[C@H]5CN6C)n4)ncc3s2)C1` [Example 389], the pIC50 is 6.00 to 7.00 in experiment [1] (setting [5]) and 5.30 to 6.00 in experiment [2] (setting [4]).
With `CN1C[C@@H]2C[C@H]1CN2c1cccc(Nc2cc3nc(-c4nccn4C)sc3cn2)n1` [Example 108, N-[2-(1-Methyl-1H-imidazol-2-yl)-[1,3]thiazolo[5,4-c]pyridin-6-yl]-6-[(1S,4S)-5-methyl-2,5-diazabicyclo[2.2.1]heptan-2-yl]pyridin-2-amine], the pIC50 in experiment [1] (setting [6]) and in experiment [2] (setting [7]) was above 7.00 each time.
For the compound `Cc1ccc(Nc2cc3nc(-c4ncccc4C)sc3cn2)nc1CN1CC[C@@H](C#N)C1` [Example 54, 6 (3R)-1-[(3-Methyl-6-{[2-(3-methylpyridin-2-yl)-[1,3]thiazolo[5,4-c]pyridin-6-yl]amino}pyridin-2-yl)methyl]pyrrolidine-3-carbonitrile], the pIC50 in experiment [1] (setting [6]) was above 7.00; in experiment [2] (setting [7]), below 5.30.
Take `NC1(c2nc(Nc3cc4nc(-c5c(F)cccc5F)sc4cn3)ccc2N2CCC(F)(F)C2)CC1` [Example 274, 6-(1-Aminocyclopropyl)-N-[2-(2,6-difluorophenyl)-[1,3]thiazolo[5,4-c]pyridin-6-yl]-5-(3,3-difluoropyrrolidin-1-yl)pyridin-2-amine]: the pIC50 in experiment [1] (setting [6]) was above 7.00; in experiment [2] (setting [7]), below 5.30.
Consider `Cc1cc(-c2nc3cc(Nc4ccc(C5CCOCC5)c(N5C[C@@H]6CCN(C)[C@@H]6C5)n4)ncc3s2)ccn1` [Example 248, 6-[(3aS,6aS)-1-Methyl-octahydropyrrolo[3,4-b]pyrrol-5-yl]-N-[2-(2-methylpyridin-4-yl)-[1,3]thiazolo[5,4-c]pyridin-6-yl]-5-(oxan-4-yl)pyridin-2-amine], for which the pIC50 in experiment [1] (setting [6]) is above 7.00; in experiment [1] (5 nM HPK1, 200 μM ATP, read-out: Biochemical Potency (high ATP)) it was above 7.00; in experiment [2] (setting [7]) it was above 7.00.
For `Cc1cc(Nc2cc3nc(-c4cccn5nccc45)sc3cn2)nc(N2C[C@@H]3C[C@H]2CN3CCO)n1` [Example 360], the pIC50 in experiment [1] (setting [5]) is above 7.00; in experiment [2] (setting [4]), 5.30 to 6.00.
Regarding `Cc1cc(Nc2cc3nc(-c4cnn(C)c4-c4ccccc4)sc3cn2)nc(N2C[C@@H]3C[C@H]2CN3C)n1` [Example 368], the pIC50 was above 7.00 in experiment [1] (setting [5]) and 6.00 to 7.00 in experiment [2] (setting [4]).
On to `Cc1ccc(Nc2cc3nc(-n4nccc4C)sc3cn2)nc1CN[C@H]1CCOC1` [Example 198, 5-Methyl-N-[2-(5-methyl-1H-pyrazol-1-yl)-[1,3]thiazolo[5,4-c]pyridin-6-yl]-6-({[(3S)-oxolan-3-yl]amino}methyl)pyridin-2-amine], for which the pIC50 is above 7.00 in experiment [1] (setting [6]) and below 5.30 in experiment [2] (setting [7]).
In the case of `Fc1cccc(F)c1-c1nc2cc(Nc3cc4c(cn3)CCNC4)ncc2s1` [Example 486], the pIC50 in experiment [1] (setting [3]) is 6.00 to 7.00; in experiment [2] (setting [4]), 4.60 to 5.30.
Take `c1cncc(-c2nc3cc(Nc4ccc(C5CCOC5)c(CN5CCCC5)n4)ncc3s2)c1` (centres unmarked) [Example 254, 5-(Oxolan-3-yl)-N-[2-(pyridin-3-yl)-[1,3]thiazolo[5,4-c]pyridin-6-yl]-6-[(pyrrolidin-1-yl)methyl]pyridin-2-amine]: the pIC50 was above 7.00 in experiment [1] (setting [6]) and 6.00 to 7.00 in experiment [2] (setting [7]).
Consider `Cc1cc(Nc2cc3nc(-c4ccc5c(c4)CN(S(C)(=O)=O)CC5)sc3cn2)nc(N2C[C@@H]3C[C@H]2CN3C)n1` [Example 574], for which the results for the pIC50 in experiment [1] (setting [5]) and in experiment [2] (setting [4]) were above 7.00 and 4.60 to 5.30, respectively.
Turning to `Cc1cc(Nc2cc3nc(-c4cccc(C(=O)N(C)C5CCOC5)c4)sc3cn2)nc(N2C[C@@H]3C[C@H]2CN3CCO)n1` (some centres unmarked) [Example 559], in experiment [2] (setting [4]), the pIC50 is 6.00 to 7.00.
